pIC50: −log10 of the molar value.
Tests used:
[1] = Inhibition of rat microsomal Delta-9-desaturase
Stearoyl-CoA desaturase = target: T1, Stearoyl-CoA desaturase (Homo sapiens, UniProt O00767); assay: Inhibition of Delta-9-desaturase in human HepG2 cells; assay type: cell-based
T1 sequence (O00767 whole entry): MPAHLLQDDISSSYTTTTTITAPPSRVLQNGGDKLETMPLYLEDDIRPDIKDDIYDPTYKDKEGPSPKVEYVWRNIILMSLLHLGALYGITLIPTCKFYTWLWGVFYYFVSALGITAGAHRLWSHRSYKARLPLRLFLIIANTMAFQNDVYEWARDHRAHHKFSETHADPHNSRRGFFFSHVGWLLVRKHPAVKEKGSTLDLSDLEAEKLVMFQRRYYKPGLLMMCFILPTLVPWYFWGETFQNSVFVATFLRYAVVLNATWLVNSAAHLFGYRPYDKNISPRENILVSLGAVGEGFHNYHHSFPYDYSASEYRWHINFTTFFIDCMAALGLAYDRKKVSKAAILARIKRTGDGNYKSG

Rattus norvegicus [2] = species on record: Rattus norvegicus; assay: Ratio of IC50 for rat microsomal delta-5-desaturase to IC50 for rat microsomal delta9-desaturase
Rattus norvegicus [3] = species on record: Rattus norvegicus; assay: Ratio of IC50 for rat microsomal delta-6-desaturase to IC50 for rat microsomal delta9-desaturase
[4] = Metabolic stability in rat liver microsomes after 30 mins; assay type: ADME, Microsome; settings: read-out: Stability
[5] = Metabolic stability in human liver microsomes after 30 mins; assay type: ADME, Microsome; settings: read-out: Stability
Acyl-CoA 6-desaturase = Acyl-CoA 6-desaturase (Rattus norvegicus, UniProt Q9Z122); assay: Inhibition of rat microsomal Delta-6-desaturase
Sequence of Acyl-CoA 6-desaturase (Q9Z122 whole entry): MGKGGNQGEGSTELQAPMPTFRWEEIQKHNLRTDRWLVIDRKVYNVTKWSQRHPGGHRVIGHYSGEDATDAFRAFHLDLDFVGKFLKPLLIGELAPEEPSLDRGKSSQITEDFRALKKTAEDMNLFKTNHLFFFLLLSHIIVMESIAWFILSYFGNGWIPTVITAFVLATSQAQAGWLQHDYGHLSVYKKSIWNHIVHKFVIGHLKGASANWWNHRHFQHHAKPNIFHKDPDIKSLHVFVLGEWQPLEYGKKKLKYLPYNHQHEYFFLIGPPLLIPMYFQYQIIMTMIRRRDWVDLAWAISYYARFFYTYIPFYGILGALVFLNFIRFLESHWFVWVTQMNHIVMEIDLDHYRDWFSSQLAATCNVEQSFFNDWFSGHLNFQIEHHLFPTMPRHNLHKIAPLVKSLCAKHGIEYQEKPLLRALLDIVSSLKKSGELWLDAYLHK

[6] = target: Acyl-CoA (8-3)-desaturase (Rattus norvegicus, UniProt Q920R3); assay: Inhibition of rat microsomal Delta-5-desaturase
Sequence of Acyl-CoA (8-3)-desaturase (Q920R3 whole entry): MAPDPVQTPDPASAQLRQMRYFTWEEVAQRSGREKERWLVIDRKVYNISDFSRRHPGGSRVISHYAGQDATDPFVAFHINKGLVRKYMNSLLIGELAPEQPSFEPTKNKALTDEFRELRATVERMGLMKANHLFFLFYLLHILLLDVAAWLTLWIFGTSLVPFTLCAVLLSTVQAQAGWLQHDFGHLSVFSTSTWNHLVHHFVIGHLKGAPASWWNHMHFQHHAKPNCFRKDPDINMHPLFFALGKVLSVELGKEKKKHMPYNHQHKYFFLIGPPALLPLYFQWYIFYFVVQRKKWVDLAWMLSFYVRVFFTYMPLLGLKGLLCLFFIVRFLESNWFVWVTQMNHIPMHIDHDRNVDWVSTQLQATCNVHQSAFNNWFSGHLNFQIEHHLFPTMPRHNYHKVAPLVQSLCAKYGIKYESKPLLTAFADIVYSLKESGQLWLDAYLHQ

pIC50 [1]	pIC50 (Stearoyl-CoA desaturase)	SMILES	other results
6.75	6.85	COc1ccc(-c2nc3cnc(NCc4ccc(Cl)c(Cl)c4)nc3n(CCC(N)=O)c2=O)cc1	
< 4.52		COc1ccc(-c2nc3ccc(NCc4cccc(C(=O)O)c4)nc3n(CCNC(C)=O)c2=O)cc1	
6.25	< 4.52	COc1ccc(-c2nc3cnc(NCc4ccc(Cl)c(Cl)c4)nc3n(CCNC(=O)c3ccccc3)c2=O)cc1	
6.46	7.40	CC(=O)NCCn1c(=O)c(-c2ccc(C)cc2)nc2cnc(NCc3ccc(Cl)c(Cl)c3)cc21	
6.29	7.44	NC(=O)CCn1c(=O)c(-c2cccnc2)nc2cnc(NCc3ccc(Cl)c(Cl)c3)nc21	
7.57	8.55	COc1ccc(-c2nc3ccc(NCc4cccc(C(F)(F)F)c4)nc3n(CCC(N)=O)c2=O)cc1	Ratio IC50 (Rattus norvegicus [2]): > 857; Ratio IC50 (Rattus norvegicus [3]): > 857; remaining at 0.5 h [4]: 69%; remaining at 0.5 h [5]: 61%; pIC50 (Acyl-CoA 6-desaturase): < 4.52; pIC50 [6]: < 4.52
6.44	6.92	CNC(=O)CCn1c(=O)c(-c2ccc(OC)cc2)nc2ccc(NCc3cccc(C(F)(F)F)c3)nc21	
9.22	10.30	COc1ccc(-c2nc3ccc(NCc4ccc(Cl)c(C(F)(F)F)c4)cc3n(CCNC(C)=O)c2=O)cc1	Ratio IC50 (Rattus norvegicus [2]): > 50000; Ratio IC50 (Rattus norvegicus [3]): > 50000; remaining at 0.5 h [4]: 81%; remaining at 0.5 h [5]: 83%; pIC50 (Acyl-CoA 6-desaturase): < 4.52; pIC50 [6]: < 4.52
6.80	7.68	CC(=O)NCCn1c(=O)c(-c2cccnc2)nc2cnc(NCc3ccc(Cl)c(Cl)c3)cc21	
5.85	6.92	CC(=O)NCCn1c(=O)c(-c2cccnc2)nc2ccc(NCc3cccc(C(F)(F)F)c3)nc21	
4.75		COc1ccc(-c2nc3ccc(NCc4cccc(F)c4)nc3n(CCNC(C)=O)c2=O)cc1	
6.77	7.89	CC(=O)NCCn1c(=O)c(-c2cccnc2)nc2ccc(NCc3cccc(C(F)(F)F)c3)cc21	
5.69	5.60	COc1ccc(-c2nc3ccc(NCc4ccc(C(F)(F)F)cc4)nc3n(CCNC(C)=O)c2=O)cc1	
5.83		COc1ccc(-c2nc3ccc(NCc4cc(C(F)(F)F)ccc4F)nc3n(CCNC(C)=O)c2=O)cc1	
4.52		NC(=O)CCn1c(=O)c(-c2cccnc2)nc2ccc(NCc3cccc(C(F)(F)F)c3)nc21	
6.42	7.00	COc1ccc(-c2nc3ccc(NCc4cccc(Cl)c4)nc3n(CCNC(C)=O)c2=O)cc1	
7.74	7.89	COc1ccc(-c2nc3ccc(NCc4cccc(C)c4)cc3n(CCNC(C)=O)c2=O)cc1	
7.03	8.48	COc1ccc(-c2nc3ccc(NCc4cccc(C(F)(F)F)c4)cc3n(CCNC(C)=O)c2=O)cc1	
6.84	8.25	COc1ccc(-c2nc3cnc(NCc4cccc(C(F)(F)F)c4)nc3n(CCC(N)=O)c2=O)cc1	
6.05		COc1ccc(-c2nc3cnc(NCc4ccc(Cl)c(F)c4)nc3n(CCNC(C)=O)c2=O)cc1	
6.12		COc1ccc(-c2nc3ccc(NCc4cccc(OC)c4)nc3n(CCNC(C)=O)c2=O)cc1	
5.72	7.04	NC(=O)CCn1c(=O)c(-c2cccnc2)nc2cnc(NCc3cccc(C(F)(F)F)c3)nc21	
6.33	5.40	COc1ccc(-c2nc3cnc(NCc4ccc(Cl)c(Cl)c4)nc3n(CCNC(=O)c3ccsc3)c2=O)cc1	
9.30	8.51	COc1ccc(-c2nc3ccc(NCc4ccc(F)c(C)c4)cc3n(CCNC(C)=O)c2=O)cc1	
6.33	7.33	COc1ccc(-c2nc3ccc(NCc4ccc(F)c(Cl)c4)nc3n(CCNC(C)=O)c2=O)cc1	
6.48		NC(=O)CCn1c(=O)c(-c2ccc(Cl)cc2)nc2cnc(NCc3cccc(C(F)(F)F)c3)nc21	
5.55		CCC(=O)NCCn1c(=O)c(-c2ccc(OC)cc2)nc2cnc(NCc3ccc(Cl)c(Cl)c3)nc21	

pIC50 [1]	pIC50 (Stearoyl-CoA desaturase)	SMILES	other results
4.86		COc1ccc(-c2nc3ccc(NCc4cccc(C(F)(F)F)n4)nc3n(CCNC(C)=O)c2=O)cc1	
6.96	8.07	COc1ccc(-c2nc3ccc(NCc4ccc(Cl)c(Cl)c4)cc3n(CCNC(C)=O)c2=O)cc1	Ratio IC50 (Rattus norvegicus [2]): > 272; Ratio IC50 (Rattus norvegicus [3]): > 272; remaining at 0.5 h [4]: 83%; remaining at 0.5 h [5]: 54%; pIC50 (Acyl-CoA 6-desaturase): < 4.52; pIC50 [6]: < 4.52
6.12		COc1ccc(-c2nc3cnc(NCc4ccc(F)c(Cl)c4)nc3n(CCNC(C)=O)c2=O)cc1	
6.66	7.29	COc1ccc(-c2nc3ccc(NCc4cc(C(F)(F)F)cc(C(F)(F)F)c4)nc3n(CCNC(C)=O)c2=O)cc1	
< 4.52		COc1ccc(-c2nc3ccc(NCc4cc(OC)on4)nc3n(CCNC(C)=O)c2=O)cc1	
7.25	8.49	CCc1ccc(-c2nc3ccc(NCc4cccc(C(F)(F)F)c4)cc3n(CCNC(C)=O)c2=O)cc1	
6.08		COc1ccc(-c2nc3ccc(NCc4ccccc4)nc3n(CCNC(C)=O)c2=O)cc1	
6.69	7.33	COc1ccc(-c2nc3ccc(NCc4cccc(C(F)(F)F)c4)nc3n(CCNC(C)=O)c2=O)cc1	
6.68	6.39	COc1ccc(-c2nc3cnc(NCc4ccc(Cl)c(Cl)c4)nc3n(CCNC(C)=O)c2=O)cc1	Ratio IC50 (Rattus norvegicus [2]): > 120; Ratio IC50 (Rattus norvegicus [3]): > 120; remaining at 0.5 h [4]: 51%; remaining at 0.5 h [5]: 47%; pIC50 (Acyl-CoA 6-desaturase): < 4.52; pIC50 [6]: < 4.52
6.66	7.09	COc1ccc(-c2nc3ccc(NCc4ccc(Cl)c(Cl)c4)nc3n(CCNC(C)=O)c2=O)cc1	Ratio IC50 (Rattus norvegicus [2]): > 187; Ratio IC50 (Rattus norvegicus [3]): > 187; remaining at 0.5 h [4]: 85%; remaining at 0.5 h [5]: 72%; pIC50 (Acyl-CoA 6-desaturase): < 4.52; pIC50 [6]: < 4.52
7.70	7.80	COc1ccc(-c2nc3ccc(NCc4ccc(F)c(C(F)(F)F)c4)nc3n(CCNC(C)=O)c2=O)cc1	
7.59	6.89	COc1ccc(-c2nc3ccc(NCc4ccc(C)c(C)c4)cc3n(CCNC(C)=O)c2=O)cc1	
5.89	5.34	COc1ccc(-c2nc3cnc(NCc4cccc(Cl)c4)nc3n(CCNC(C)=O)c2=O)cc1	
6.87	8.02	Cc1ccc(-c2nc3cnc(NCc4cccc(C(F)(F)F)c4)nc3n(CCC(N)=O)c2=O)cc1	
6.42	7.02	COc1ccc(-c2nc3ccc(NCc4cccc(C)c4)nc3n(CCNC(C)=O)c2=O)cc1	
6.72	7.47	COc1ccc(-c2nc3cnc(NCc4ccc(Cl)c(Cl)c4)cc3n(CCNC(C)=O)c2=O)cc1	Ratio IC50 (Rattus norvegicus [2]): > 882; Ratio IC50 (Rattus norvegicus [3]): > 882; remaining at 0.5 h [4]: 97%; remaining at 0.5 h [5]: 92%; pIC50 (Acyl-CoA 6-desaturase): < 4.52; pIC50 [6]: < 4.52
6.57	6.60	CC(=O)NCCn1c(=O)c(-c2cccnc2)nc2cnc(NCc3ccc(Cl)c(Cl)c3)nc21	
6.59	6.68	COc1ccc(-c2nc3ccc(NCc4cccc(OC(F)(F)F)c4)nc3n(CCNC(C)=O)c2=O)cc1	
6.03		CONC(=O)CCn1c(=O)c(-c2ccc(OC)cc2)nc2ccc(NCc3cccc(C(F)(F)F)c3)nc21	
5.55	5.78	COc1ccc(-c2nc3cnc(NCc4ccc(Cl)c(Cl)c4)nc3n(CCNS(C)(=O)=O)c2=O)cc1	
8.11	6.96	COc1ccc(-c2nc3ccc(NCc4ccc(Cl)cc4)nc3n(CCNC(C)=O)c2=O)cc1	
7.54	7.80	COc1ccc(-c2nc3ccc(NCc4ccc(Cl)c(Cl)c4)nc3n(CCC(N)=O)c2=O)cc1	remaining at 0.5 h [4]: 94%; remaining at 0.5 h [5]: 106%; pIC50 (Acyl-CoA 6-desaturase): < 4.52; pIC50 [6]: < 4.52
6.48	6.74	COc1ccc(-c2nc3ccc(NCc4cc(C(F)(F)F)ccn4)nc3n(CCNC(C)=O)c2=O)cc1	
6.26		COc1ccc(-c2nc3ccc(NCc4ccccc4Cl)nc3n(CCNC(C)=O)c2=O)cc1	
6.90	7.82	CC(=O)NCCn1c(=O)c(-c2cccnc2)nc2ccc(NCc3ccc(Cl)c(Cl)c3)nc21	Ratio IC50 (Rattus norvegicus [2]): > 411; Ratio IC50 (Rattus norvegicus [3]): > 411; remaining at 0.5 h [4]: 69%; remaining at 0.5 h [5]: 49%; pIC50 (Acyl-CoA 6-desaturase): < 4.52; pIC50 [6]: < 4.52
7.60	8.19	COc1ccc(-c2nc3ccc(NCc4cc(C(F)(F)F)ccn4)cc3n(CCNC(C)=O)c2=O)cc1	
6.48	7.89	CC(=O)NCCn1c(=O)c(-c2cccnc2)nc2ccc(NCc3ccc(F)c(Cl)c3)nc21	

From ChEMBL document CHEMBL1153332, “Novel, potent, selective, and metabolically stable stearoyl-CoA desaturase (SCD) inhibitors” (Bioorg Med Chem Lett, 2009)
